Earlier results on one compound are cited in patent US4939134A, “26-aminocholesterol and derivatives and analogs thereof in the regulation of cholesterol accumulation in body tissue” (New York University, priority 1988, dated 1990).

One series has as its system HMG CoA reductase. Particulars: cited from earlier work.
A further series relates to LDL receptors. Particulars: fibroblasts and other non-hepatic cells, cell culture studies; cited from earlier work.
The test system of series [1] is hepatic cholesterol synthesis. Particulars: cited from earlier work.

For the compound `CC[C@H](C)C(=O)O[C@H]1C[C@@H](C)C=C2C=C[C@H](C)[C@H](CC[C@@H]3C[C@@H](O)CC(=O)O3)[C@H]21` [mevinolin], the “amount of HMG CoA reductase” value in the series on HMG CoA reductase is listed as “increases the amount of HMG CoA reductase”. Besides, in the series on LDL receptors, the LDL receptors result was “upregulates LDL receptors”. The hepatic cholesterol synthesis result in series [1] is reported as “inhibit hepatic cholesterol synthesis”.
